Test results from patent publication US4347319A, “Microbiological epoxidation process” (priority 1980, dated 1982).
Read-outs that look alike come from different tables or passages of the source.

Columns and labels:
Assay type in all cases: biochemical
[1] = molecular target: T1, cell fractions of Methylosinus trichosporium (OB3b, NRRL B-11,196) (Methylosinus trichosporium, UniProt Q50541+Q9KX50+Q9KX51); settings: for Conversion Rate: particulate P(40) fraction, n-propane to 2-propanol, n-butane to 2-butanol; for Oxidizing Activity (rate of oxidation) in cell fraction: propylene to propylene oxide, methane to methanol, 30° C.; for % Distribution in Cell Fraction: propylene-epoxidizing / methane-hydroxylating activity
T1 sequence (Q9KX50 40-431): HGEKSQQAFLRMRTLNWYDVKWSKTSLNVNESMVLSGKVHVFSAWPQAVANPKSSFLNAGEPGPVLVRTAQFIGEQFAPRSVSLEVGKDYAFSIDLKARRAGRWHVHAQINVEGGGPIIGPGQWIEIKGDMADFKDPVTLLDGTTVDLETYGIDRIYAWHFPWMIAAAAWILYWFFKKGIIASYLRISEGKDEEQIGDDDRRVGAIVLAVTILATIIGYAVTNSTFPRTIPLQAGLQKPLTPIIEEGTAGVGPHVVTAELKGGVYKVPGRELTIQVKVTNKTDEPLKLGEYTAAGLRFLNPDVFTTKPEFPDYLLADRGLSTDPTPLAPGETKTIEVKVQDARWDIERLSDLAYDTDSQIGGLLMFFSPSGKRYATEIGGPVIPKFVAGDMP
T1 sequence (Q50541 1-252): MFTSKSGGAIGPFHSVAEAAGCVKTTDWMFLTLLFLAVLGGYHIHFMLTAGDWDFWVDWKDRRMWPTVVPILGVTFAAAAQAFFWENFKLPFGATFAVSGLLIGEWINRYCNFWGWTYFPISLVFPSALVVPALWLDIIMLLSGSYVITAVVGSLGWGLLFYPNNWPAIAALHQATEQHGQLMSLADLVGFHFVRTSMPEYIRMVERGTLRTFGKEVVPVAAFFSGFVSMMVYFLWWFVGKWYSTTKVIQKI
T1 sequence (Q9KX51 1-256): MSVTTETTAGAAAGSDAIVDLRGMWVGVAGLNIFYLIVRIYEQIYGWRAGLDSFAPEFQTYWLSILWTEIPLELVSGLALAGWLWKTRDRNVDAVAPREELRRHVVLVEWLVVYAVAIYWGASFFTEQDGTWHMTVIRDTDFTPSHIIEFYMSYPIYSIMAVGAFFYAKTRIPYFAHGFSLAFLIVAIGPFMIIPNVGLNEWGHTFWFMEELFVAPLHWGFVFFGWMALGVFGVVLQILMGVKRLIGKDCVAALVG
Protocol: Cells were washed twice with 25 mM potassium phosphate buffer, pH 7.0 containing 5 mM MgCl2. Cells were suspended in the same buffer. The cell suspensions at 4° C. were disintegrated by a single passage through a French Pressure cell (15,000 lb./in.^2) and centrifuged at 5000×g. for 15 min. to remove unbroken bacteria. The supernatant solution (crude extract) was then centrifuged at 40,000×g. for 30 min., yielding particulate P(40) and soluble S(40) fractions. The S(40) fraction was subsequently centrifuged at 80,000×g. for 60 min., yielding particulate P(80) and soluble S(80) fractions. The particulate fractions [P(40) and P(80)] were suspended in 25 mM potassium phosphate buffer, pH 7.0, containing 5 mM MgCl2 and homogenized at 4° C.
(§1) The oxidation of methane and propylene by particulate [(P)40 and (P)80] fractions and soluble [S(80)] fraction was measured at 30° C. by estimating the production of methanol and propylene oxide, respectively. The reaction mixtures contained in […]: 150 mM potassium phosphate buffer, pH 7.0 containing 5 mM MgCl2 b, 0.6 ml; 10μ moles NADH, and cellular fraction.
(§2) Reaction mixtures were contained in 10 ml vials at 4° C. Vials were sealed with rubber caps. The gaseous phase in the vials was removed using vacuum and then was replaced with a gas mixture of methane or propylene and oxygen at a 1:1, v/v ratio. Oxidation of other gaseous n-alkanes and n-alkanes was examined as described above. For liquid substrates, 10 μl of substrate was used directly.
The products of epoxidation of n-alkenes and hydroxylation of n-alkanes were assayed by flame ionization gas chromatography using a stainless steel column (12'×1/8") packed with 10% Carbowax 20 M on 80/100 Chromosorb W and Porapak Q column. The column temperature was maintained isothermally at 120° C. The carrier gas flow rate was 30 ml/min. of helium. The various products were identified by retention time comparisons and co-chromatography with authentic standards.
Specific activities were expressed as μ moles of products formed per hour per mg. protein. Concentrations of protein in various fractions were determined by the method of Lowry et al., J. Biol. Chem., 193: 265-275 (1951).

[2] = system: cell fractions of Methylomonas sp. (CRL-17, NRRL B-11,208); assay: Oxidation by cell fractions P(40), P(80), S(80); settings: propylene to propylene oxide, methane to methanol, 30° C.
Procedure, shortened: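 Cells washed and French-press disrupted in 25 mM K phosphate pH 7.0 with 5 mM MgCl2; particulate P(40), P(80) and soluble S(80) fractions from 40,000×g and 80,000×g spins. Methane or propylene (1:1 with O2) oxidised at 30° C with NADH; methanol/propylene oxide by GC; activity as μmoles product/h/mg protein.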

[3] = system: P(40) particulate fraction of Methylosinus sp. (CRL-15, NRRL B-11,202); assay: Substrate competition: effect of methane on propylene epoxidation; settings: 30° C.
Protocol: as §1, §2
The hydroxylation of methane and the epoxidation of propylene by particulate fractions of methane-utilizing bacteria required oxygen and NADH. The question of whether the same or a similar enzyme was involved in the oxidation of both substrates was examined by substrate competition experiments. The experiment consisted of determining the effect of methane on the oxidation of propylene to propylene oxide by the P(40) particulate fraction of Methylosinus sp. (CRL-15, NRRL B-11,202).

| SMILES | Conversion Rate [1] | Oxidizing Activity (rate of oxidation) in cell fraction ([2]; P(40)) | Oxidizing Activity (rate of oxidation) in cell fraction ([2]; P(80)) | Oxidizing Activity (rate of oxidation) in cell fraction ([2]; S(80)) | Oxidizing Activity (rate of oxidation) in cell fraction ([1]; P(40)) | % Distribution in Cell Fraction ([1]; P(40)) | Oxidizing Activity (rate of oxidation) in cell fraction ([1]; P(80)) | % Distribution in Cell Fraction ([1]; P(80)) | Propylene Oxide Produced [3] |
| --- | --- | --- | --- | --- | --- | --- | --- | --- | --- |
| CCCC [Butane] | 0.79 μmoles/hr/2.0mg. of protein |  |  |  |  |  |  |  |  |
| C [Methane] |  | 2.9 μ moles of products formed per | 2.7 μ moles of products formed per | 0 μ moles of products formed per | 3.1 μ moles of products formed per | 83% | 3.0 μ moles of products formed per | 13% | 0 μmoles/hr./mg. protein |
| CCC [Propane] | 1.32 μmoles/hr/2.0mg. of protein |  |  |  |  |  |  |  |  |
| C=CC [Propylene] |  | 2.2 μ moles of products formed per | 2.0 μ moles of products formed per | 0 μ moles of products formed per | 2.8 μ moles of products formed per | 82% | 2.5 μ moles of products formed per | 18% | 4.3 μmoles/hr./mg. protein |
